≈ marks a conversion by molar mass, not a printed value.
Key:
Gram negative rods = assay: Supplements added to culture media to control bacterial diversity (microscopy, 18 h); format: cell-based; design: key: “+++” marks the diversity of certain bacterial type in control; “+++++” indicates an increased diversity of bacterial type; conditions: 18 h of cultivation
Source text: (§1) We next studied, could we regulate bacterial diversity grown from the bio samples with different compounds including transcriptase inhibitors, protease inhibitors, recombinase/integrase inhibitors, nucleases.

[1] = test system: Gram positive non-sporeforming bacteria; assay: as above; format: cell-based; design: key: “+++” marks the diversity of certain bacterial type in control; “+++++” indicates an increased diversity of bacterial type; conditions: 18 h of cultivation
Source text: as §1

[2] = test system: Gram positive sporeforming bacteria; assay: as above; format: cell-based; design: key: “+++” marks the diversity of certain bacterial type in control; “+++++” indicates an increased diversity of bacterial type; conditions: 18 h of cultivation
Source text: as §1

PP [3] = assay: Neutropenic mouse pneumonia infected with biosamples, tobramycin treatment, decrease of PP count by 3log10 over 48 hours; format: in vivo, C57BL/6 mice; conditions: efficacy = decrease of PP count by 3log10 over 48 hours
Procedure: Next, using the same biosamples we infected mice modulating pneumonia. For that, adult C57BL/6 mice were rendered neutropenic by injecting cyclophosphamide subcutaneously 4 days before infection (150 mg/kg of body weight), 1 day before infection (100 mg/kg), and 1 day after infection (100 mg/kg). Mice were anesthetized with 2% isoflurane and orally instilled with biosample disluted in PBS. Briefly, nares were blocked, and mice aspirated 50 μL of the biosample into the lungs while being held vertically for 60 s. MIX was taken as a Cmax.
30 animals were used (n=10 per group) and were treated with different concentrations of tobramycin according to the results obtained by proposed method from 3 different biosamples.
(§2) Efficacy was evaluated by the decrease of PP count by 3log10 over 48 hours.

Primary Pathogens = assay: Sensitivity of primary pathogens to antibiotics, standard serial microbroth-dilution method (Example 23); format: cell-based; conditions: for MIC: Pseudomonas aeruginosa
Source text: We used sputum from patients with different pulmonary infections. Pure bacterial culture of each microorganisms was obtained by routine microbiological methods, bacterial identification was done by MALDI-TOF analysis, microbial diversity of biosample was done by metagenomic analysis (16S RNA sequencing).
Primary pathogen was selected as a leading pathogen in each infection case, based on consultation with an independent doctors who have received a description of the clinical picture, microbiology and microbiology analyses. Sensitivity of PP to antibiotics was evaluated using a standard serial microbroth-dilution method.

PP in sputum biosamples = assay: Presence of PP growth in wells with different tobramycin concentrations; format: cell-based; design: key: “+”—presence of bacterial growth, antibiotic is ineffective; “−”—absence of bacterial growth, antibiotic is effective
Procedure: Next, biosamples were plated to the wells of 48 well plate filled with Columbia +Pept Meat Agar supplemented with tobramycin taken at different concentrations (we have taken MIC as equal to Cmax) and presence of PP growth was evaluated in each well in 24 h of growth.

PP [4] = assay: Animals treated with amoxicillin regimens, decrease of PP count by 3log10 over 48 hours; format: in vivo; conditions: efficacy = decrease of PP count by 3log10 over 48 hours
Procedure: 25 animals were used (n=5 per group) and were treated with different concentrations of Amoxicillin according to the results obtained by proposed method from 3 different biosamples.
as §2

Nc1nc([O-])c2ncn(COCCO)c2n1.[Na+] [Group 11]
diversity of Gram negative rods (Gram negative rods; compound at 0.5 ug/mL): +++
diversity of Gram positive non-sporeforming bacteria ([1]; compound at 0.5 ug/mL): +++++
diversity of Gram positive sporeforming bacteria ([2]; compound at 0.5 ug/mL): +++

C[C@H](Cn1cnc2c(N)ncnc21)OCP(=O)(O)O [Group 8]
diversity of Gram negative rods (Gram negative rods; compound at 100 ug/mL): +++
diversity of Gram positive non-sporeforming bacteria ([1]; compound at 100 ug/mL): +++++
diversity of Gram positive sporeforming bacteria ([2]; compound at 100 ug/mL): +++

Nc1nc([O-])c2ncn(COCCO)c2n1.[Na+] [Group 12]
diversity of Gram negative rods (Gram negative rods; compound at 100 ug/mL): +++
diversity of Gram positive non-sporeforming bacteria ([1]; compound at 100 ug/mL): +++++
diversity of Gram positive sporeforming bacteria ([2]; compound at 100 ug/mL): +++

C[C@H](Cn1cnc2c(N)ncnc21)OCP(=O)(O)O [Group 7]
diversity of Gram negative rods (Gram negative rods; compound at 0.5 ug/mL): +++
diversity of Gram positive non-sporeforming bacteria ([1]; compound at 0.5 ug/mL): +++++
diversity of Gram positive sporeforming bacteria ([2]; compound at 0.5 ug/mL): +++

NC[C@H]1O[C@H](O[C@H]2[C@H](O)[C@@H](O[C@H]3O[C@H](CO)[C@@H](O)[C@H](N)[C@H]3O)[C@H](N)C[C@@H]2N)[C@H](N)C[C@@H]1O [Tobramycin]
Number of animals to whom therapy was effective/number of animals per group (PP [3]; Group 1a, biosample #1, Cmax 1/10 (lowest EFFECTIVE)): 5/5
Number of animals to whom therapy was effective/number of animals per group (PP [3]; Group 1b, biosample #1, Cmax 1/100 (highest INEFFECTIVE)): 0/5
Number of animals to whom therapy was effective/number of animals per group (PP [3]; Group 2a, biosample #2, Cmax 1/1 (lowest EFFECTIVE)): 5/5
Number of animals to whom therapy was effective/number of animals per group (PP [3]; Group 2b, biosample #2, Cmax 1/10 (highest INEFFECTIVE)): 0/5
Number of animals to whom therapy was effective/number of animals per group (PP [3]; Group 3a, biosample #3, Cmax 1/4 (lowest EFFECTIVE)): 5/5
Number of animals to whom therapy was effective/number of animals per group (PP [3]; Group 3b, biosample #3, Cmax 1/10 (highest INEFFECTIVE)): 0/5
Sensitivity (CLSI interpretation) (Primary Pathogens; Biosample 1, P. aeruginosa): S
Sensitivity (CLSI interpretation) (Primary Pathogens; Biosample 2, P. aeruginosa): I
Sensitivity (CLSI interpretation) (Primary Pathogens; Biosample 3, P. aeruginosa): I
MIC (Primary Pathogens; Biosample 1, P. aeruginosa): 2 µg/mL (≈ 4.28 µM)
MIC (Primary Pathogens; Biosample 2, P. aeruginosa): 8 µg/mL (≈ 17.1 µM)
MIC (Primary Pathogens; Biosample 3, P. aeruginosa): 8 µg/mL (≈ 17.1 µM)
Presence of bacterial growth in the wells (PP in sputum biosamples; Biosample 1 (PP P. aeruginosa), 1/10 Cmax, 24 h): −
Presence of bacterial growth in the wells (PP in sputum biosamples; Biosample 1 (PP P. aeruginosa), 1/100 Cmax, 24 h): +
Presence of bacterial growth in the wells (PP in sputum biosamples; Biosample 1 (PP P. aeruginosa), Cmax × 2, 24 h): −
Presence of bacterial growth in the wells (PP in sputum biosamples; Biosample 1 (PP P. aeruginosa), Cmax × 10, 24 h): −
Presence of bacterial growth in the wells (PP in sputum biosamples; Biosample 1 (PP P. aeruginosa), Cmax, 24 h): −
Presence of bacterial growth in the wells (PP in sputum biosamples; Biosample 1 (PP P. aeruginosa), ¼ Cmax, 24 h): −
Presence of bacterial growth in the wells (PP in sputum biosamples; Biosample 1 (PP P. aeruginosa), ½ Cmax, 24 h): −
Presence of bacterial growth in the wells (PP in sputum biosamples; Biosample 2 (PP P. aeruginosa), 1/10 Cmax, 24 h): +
Presence of bacterial growth in the wells (PP in sputum biosamples; Biosample 2 (PP P. aeruginosa), 1/100 Cmax, 24 h): +
Presence of bacterial growth in the wells (PP in sputum biosamples; Biosample 2 (PP P. aeruginosa), Cmax × 2, 24 h): −
Presence of bacterial growth in the wells (PP in sputum biosamples; Biosample 2 (PP P. aeruginosa), Cmax × 10, 24 h): −
Presence of bacterial growth in the wells (PP in sputum biosamples; Biosample 2 (PP P. aeruginosa), Cmax, 24 h): −
Presence of bacterial growth in the wells (PP in sputum biosamples; Biosample 2 (PP P. aeruginosa), ¼ Cmax, 24 h): +
Presence of bacterial growth in the wells (PP in sputum biosamples; Biosample 2 (PP P. aeruginosa), ½ Cmax, 24 h): +
Presence of bacterial growth in the wells (PP in sputum biosamples; Biosample 3 (PP P. aeruginosa), 1/10 Cmax, 24 h): +
Presence of bacterial growth in the wells (PP in sputum biosamples; Biosample 3 (PP P. aeruginosa), 1/100 Cmax, 24 h): +
Presence of bacterial growth in the wells (PP in sputum biosamples; Biosample 3 (PP P. aeruginosa), Cmax × 2, 24 h): −
Presence of bacterial growth in the wells (PP in sputum biosamples; Biosample 3 (PP P. aeruginosa), Cmax × 10, 24 h): −
Presence of bacterial growth in the wells (PP in sputum biosamples; Biosample 3 (PP P. aeruginosa), Cmax, 24 h): −
Presence of bacterial growth in the wells (PP in sputum biosamples; Biosample 3 (PP P. aeruginosa), ¼ Cmax, 24 h): −
Presence of bacterial growth in the wells (PP in sputum biosamples; Biosample 3 (PP P. aeruginosa), ½ Cmax, 24 h): −
Number of animals to whom therapy was effective/number of animals per group (PP [4]; Group 1a, biosample #1, QID (lowest EFFECTIVE)): 5/5
Number of animals to whom therapy was effective/number of animals per group (PP [4]; Group 2a, biosample #2, TID (lowest EFFECTIVE)): 5/5
Number of animals to whom therapy was effective/number of animals per group (PP [4]; Group 2b, biosample #2, BID (highest INEFFECTIVE)): 0/5
Number of animals to whom therapy was effective/number of animals per group (PP [4]; Group 3a, biosample #3, BID (lowest EFFECTIVE)): 5/5
Number of animals to whom therapy was effective/number of animals per group (PP [4]; Group 3b, biosample #3, QID (highest INEFFECTIVE)): 0/5

— patent US20240182945A1, “PRODUCTS FOR REGULATION OF EUKARYOTIC AND MICROBIAL CELLS GROWTH” (priority 2021, published 2024)
